Test results as given in US20090062273A1, “3-H-pyrazolopyridines and salts thereof, pharmaceutical compositions comprising same, methods of preparing same and uses of same” (priority 2006, published 2009).

target: T1, human insuline receptor (Ins-R) (Homo sapiens, UniProt P06213); test: InsR HTRF assay (selectivity vs. Tie2 assay 2); assay type: biochemical; conditions: IC50 assay 4/IC50 assay 2
T1 construct: GST-tagged recombinant kinase domain of the human insuline receptor; GST; purchased ProQinase, Freiburg, Germany; host or cells: SF-9 cells
Procedure: Inhibitory activity of compounds against the kinase activity of the insulin receptor was quantified employing the Ins-R HTRF assay as described in the following paragraphs.
GST-tagged recombinant kinase domain of the human insuline receptor (Ins-R, purchase from ProQinase, Freiburg, Germany) expressed in SF-9 cells was used as kinase. As substrate for the kinase reaction biotinylated poly-(Glu,Tyr) (Cis biointernational, France) was used.
Ins-R was incubated for 20 min at 22° C. in the presence of different concentrations of test compounds in 5 μl assay buffer [50 mM Hepes/NaOH pH 7, 15 mM MnCl2, 1 mM dithiothreitol, 0.1 μM sodium ortho-vanadate, 0.015% (v/v) PEG20000, 10 μM adenosine-tri-phosphate (ATP), 0.3 μg/ml substrate, 1% (v/v) dimethylsulfoxide]. The concentration of Ins-R was adjusted depending of the activity of the enzyme lot and was chosen appropriate to have the assay in the linear range, typical concentrations were in the range of 10 pg/μL. The reaction was stopped by the addition of 5 μl of a solution of HTRF detection reagents (0.1 μM streptavidine-XLent and 1 nM PT66-Eu-Chelate, an europium-chelate labelled anti-phospho-tyrosine antibody from Perkin Elmer) in an aqueous EDTA-solution (80 mM EDTA, 0.2% (w/v) bovine serum albumin in 50 mM HEPES/NaOH pH 7.0).
The resulting mixture was incubated 1 h at 22° C. to allow the binding of the biotinylated phosphorylated peptide to the streptavidine-XLent and the PT66-Eu-Chelate. Subsequently the amount of phosphorylated substrate was evaluated by measurement of the resonance energy transfer from the PT66-Eu-Chelate to the streptavidine-XLent. Therefore, the fluorescence emissions at 620 nm and 665 nm after excitation at 350 nm was measured in a HTRF reader, e.g. a Rubystar (BMG Labtechnologies, Offenburg, Germany) or a ViewLux (Perkin-Elmer). The ratio of the emissions at 665 nm and at […] was taken as the measure for the amount of phosphorylated substrate. The data were normalised (enzyme reaction without inhibitor=0% inhibition, all other assay components but no enzyme=100% inhibition) and IC50 values were calculated by a 4 parameter fit using an inhouse software.

T1 sequence (P06213 1023-1298 limits assumed): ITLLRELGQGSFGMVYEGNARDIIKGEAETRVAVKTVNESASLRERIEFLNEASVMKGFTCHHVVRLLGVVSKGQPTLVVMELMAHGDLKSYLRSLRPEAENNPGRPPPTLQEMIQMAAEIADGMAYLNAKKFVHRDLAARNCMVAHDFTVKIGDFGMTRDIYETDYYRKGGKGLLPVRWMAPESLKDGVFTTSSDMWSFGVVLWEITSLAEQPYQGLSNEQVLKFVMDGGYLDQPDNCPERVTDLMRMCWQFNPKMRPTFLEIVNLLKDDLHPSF

| Selectivity vs. InsR [fold] | Compound |
| --- | --- |
| >50 | Cn1ncc2c(-c3ccc(NC(=O)Nc4cc(C(F)(F)F)ccc4F)cc3)cncc21 [Example 1.2, 1-(2-Fluoro-5-trifluoromethyl-phenyl)-3-[4-(1-methyl-1H-pyrazolo[3,4-c]pyridin-4-yl)-phenyl]-urea] |
| >50 | CCc1cccc(NC(=O)Nc2ccc(-c3cncc4c3cnn4C)cc2)c1 [Example 1.5, 1-(3-Ethyl-phenyl)-3-[4-(1-methyl-1H-pyrazolo[3,4-c]pyridin-4-yl)-phenyl]-urea] |
| >25 | CN(C(=O)Nc1cccc(C(F)(F)F)c1)c1ccc(-c2cncc3c2cnn3C)cc1 [Example 6.1, 1-Methyl-1-[4-(1-methyl-1H-pyrazolo[3,4-c]pyridin-4-yl)-phenyl]-3-(3-trifluoromethyl-phenyl)-urea] |
| >50 | Cn1ncc2c(-c3ccc(NC(=O)Nc4cc(C(F)(F)F)ccc4F)c(F)c3)cncc21 [Example 6.3, 1-[2-Fluoro-4-(1-methyl-1H-pyrazolo[3,4-c]pyridin-4-yl)-phenyl]-3-(2-fluoro-5-trifluoromethyl-phenyl)-urea] |
| >50 | CN1CCN(Cc2ccc(NC(=O)Nc3ccc(-c4cncc5c4cnn5C)cc3)cc2C(F)(F)F)CC1 [Example 6.4, 1-[4-(4-Methyl-piperazin-1-ylmethyl)-3-trifluoromethyl-phenyl]-3-[4-(1-methyl-1H-pyrazolo[3,4-c]pyridin-4-yl)-phenyl]-urea] |
| >50 | CCn1ncc2c(-c3ccc(NC(=O)Nc4cc(C(F)(F)F)ccc4F)cc3)cncc21 [Example 10.5, 1-[4-(1-Ethyl-1H-pyrazolo[3,4-c]pyridin-4-yl)-phenyl]3-(2-fluoro-5-trifluoromethyl-phenyl)-urea] |
| >50 | CCn1ncc2c(-c3ccc(NC(=O)Nc4cc(C)ccc4F)c(F)c3)cncc21 [Example 11.3, 1-[4-(1-Ethyl-1H-pyrazolo[3,4-c]pyridin-4-yl)-2-fluoro-phenyl]-3-(2-fluoro-5-methyl-phenyl)-urea] |
| >50 | COCCn1ncc2c(-c3ccc(NC(=O)Nc4cc(C)ccc4F)cc3)cncc21 [Example 12.3, 1-(2-Fluoro-5-methyl-phenyl)-3-{4-[1-(2-methoxy-ethyl)-1H-pyrazolo[3,4-c]pyridin-4-yl]-phenyl}-urea] |
| >50 | COCCn1ncc2c(-c3ccc(NC(=O)Nc4cc(C(F)(F)F)ccc4F)c(F)c3)cncc21 [Example 12.5, 1-{2-Fluoro-4-[1-(2-methoxy-ethyl)-1H-pyrazolo[3,4-c]pyridin-4-yl]-phenyl}-3-(2-fluoro-5-trifluoromethyl-phenyl)-urea] |

Continued, molecule first:

| Compound | Selectivity vs. InsR [fold] |
| --- | --- |
| Cc1ccc(F)c(NC(=O)Nc2ccc(-c3cncc4c3cnn4C)cc2)c1 [Example 1.3, 1-(2-Fluoro-5-methyl-phenyl)-3-[4-(1-methyl-1H-pyrazolo[3,4-c]pyridin-4-yl)-phenyl]-urea] | >50 |
| Cn1ncc2c(-c3ccc(NC(=O)Nc4cccc(C(F)(F)F)c4)cc3)cncc21 [Example 1.4, 1-[4-(1-Methyl-1H-pyrazolo[3,4-c]pyridin-4-yl)-phenyl]-3-(3-trifluoromethyl-phenyl)-urea] | >50 |
| Cn1ncc2c(-c3ccc(NC(=O)Nc4cc(C(F)(F)F)ccn4)cc3)cncc21 [Example 1.9, 1-[4-(1-Methyl-1H-pyrazolo[3,4-c]pyridin-4-yl)-phenyl]-3-(4-trifluoromethyl-pyridin-2-yl)-urea] | >50 |
| Cn1ncc2c(-c3ccc(NC(=O)Nc4cc(C(F)(F)F)ccc4Cl)cc3)cncc21 [Example 1.13, 1-(2-Chloro-5-trifluoromethyl-phenyl)-3-[4-(1-methyl-1H-pyrazolo[3,4-c]pyridin-4-yl)-phenyl]-urea] | >50 |
| Cn1ncc2c(-c3ccc(NC(=O)Nc4cccc(C(F)(F)F)c4)c(F)c3)cncc21 [Example 3.1, 1-[2-Fluoro-4-(1-methyl-1H-pyrazolo[3,4-c]pyridin-4-yl)-phenyl]-3-(3-trifluoromethyl-phenyl)-urea] | >50 |
| Cc1cc(-c2cncc3c2cnn3C)ccc1NC(=O)Nc1cccc(C(F)(F)F)c1 [Example 4.1, 1-[2-Methyl-4-(1-methyl-1H-pyrazolo[3,4-c]pyridin-4-yl)-phenyl]-3-(3-trifluoromethyl-phenyl)-urea] | >50 |
| O=C(Nc1ccc(-c2cncc3c2cnn3CCO)cc1F)Nc1cc(C(F)(F)F)ccc1F [Example 8.1, 1-{2-Fluoro-4-[1-(2-hydroxy-ethyl)-1H-pyrazolo[3,4-c]pyridin-4-yl]-phenyl}-3-(2-fluoro-5-trifluoromethyl-phenyl)-urea] | >50 |
| O=C(Nc1ccc(-c2cncc3c2cnn3CCO)cc1)Nc1cc(C(F)(F)F)ccc1F [Example 8.2, 1-(2-Fluoro-5-trifluoromethyl-phenyl)-3-{4-[1-(2-hydroxy-ethyl)-1H-pyrazolo[3,4-c]pyridin-4-yl]-phenyl}-urea] | >50 |
| O=C(Nc1cccc(C(F)(F)F)c1)Nc1ccc(-c2cncc3c2cnn3CCO)cc1F [Example 8.5, 1-{2-Fluoro-4-[1-(2-hydroxy-ethyl)-1H-pyrazolo[3,4-c]pyridin-4-yl]-phenyl}-3-(3-trifluoromethyl-phenyl)-urea] | >50 |
| CN1CCN(Cc2ccc(NC(=O)Nc3ccc(-c4cncc5c4cnn5CCO)cc3)cc2C(F)(F)F)CC1 [Example 8.6, 1-{4-[1-(2-Hydroxy-ethyl)-1H-pyrazolo[3,4-c]pyridin-4-yl]-phenyl}-3-[4-(4-methyl-piperazin-1-ylmethyl)-3-trifluoromethyl-phenyl]-urea] | >50 |
| CCn1ncc2c(-c3ccc(NC(=O)Nc4cccc(C(F)(F)F)c4)c(F)c3)cncc21 [Example 11.1, 1-[4-(1-Ethyl-1H-pyrazolo[3,4-c]pyridin-4-yl)-2-fluoro-phenyl]-3-(3-trifluoromethyl-phenyl)-urea] | >50 |
| CCn1ncc2c(-c3ccc(NC(=O)Nc4cc(C(F)(F)F)ccc4F)c(F)c3)cncc21 [Example 11.2, 1-[4-(1-Ethyl-1H-pyrazolo[3,4-c]pyridin-4-yl)-2-fluoro-phenyl]-3-(2-fluoro-5-trifluoromethyl-phenyl)-urea] | >50 |
| COCCn1ncc2c(-c3ccc(NC(=O)Nc4cccc(C(F)(F)F)c4)cc3)cncc21 [Example 12.1, 1-{4-[1-(2-Methoxy-ethyl)-1H-pyrazolo[3,4-c]pyridin-4-yl]-phenyl}-3-(3-trifluoromethyl-phenyl)-urea] | >50 |
| COCCn1ncc2c(-c3ccc(NC(=O)Nc4cccc(C(F)(F)F)c4)c(F)c3)cncc21 [Example 12.4, 1-{2-Fluoro-4-[1-(2-methoxy-ethyl)-1H-pyrazolo[3,4-c]pyridin-4-yl]-phenyl}-3-(3-trifluoromethyl-phenyl)-urea] | >50 |
| Cn1ncc2c(-c3ccc(NC(=O)Nc4cc(C(C)(C)C)on4)cc3)cncc21 [Example 13.2, 1-(5-tert-Butyl-isoxazol-3-yl)-3-[4-(1-methyl-1H-pyrazolo[3,4-c]pyridin-4-yl)-phenyl]-urea] | >50 |
| Cn1ncc2c(-c3ccc(NC(=O)Nc4cc(C(C)(C)C)nn4-c4ccccc4)cc3)cncc21 [Example 13.4, 1-(5-tert-Butyl-2-phenyl-2H-pyrazol-3-yl)-13-[4-(1-methyl-1H-pyrazolo[3,4-c]pyridin-4-yl)-phenyl]-urea] | >50 |
